Results taken from paper PMC6611213, “Key Features Relevant to Select Antigens and TCR From the MHC-Mismatched Repertoire to Treat Cancer” (Frontiers in Immunology, 2019).

How the values were obtained:
[1] = test system: HLA-B7 monomers; test: Thermal shift assay (DSF) of p-MHC complexes; assay type: binding, human; conditions: for Thermal stability V50: 2 µM monomer, 150 mM NaCl, 10 mM HEPES pH 7.4, 3 mM EDTA, SYPRO orange, 21°C to 95°C, mean of quadruplicates (n=2); for thermal V50: Boltzmann fitting, rounded
Protocol: (§1) (A) Thermal shift assay of MPO-peptides in comparison to pp65 and MPO2+L1. Boltzmann fitting was used to determine V50 values (half-maximal denaturation) for each p-MHC complex after gradual heating from 21°C to 95°C. The mean of quadruplicates is shown (n=2). (B) Measurement of kinetic stability of indicated p-MHC complexes in comparison to pp65 and MPO2+L1 at constant temperature of 37°C. For the determination of half-maximal decay of p-MHC complexes, the slowest constant rates were used after fitting the fluorescence values with an exponential two-phase decay equation. The mean of quadruplicates is shown (n=2). (A,B) The fluorescence was measured by monitoring the intensity of SYPRO orange protein dye binding to hydrophobic core regions of unfolded p-MHC-complexes. (C) Occurrence of the MPO2 and MPO5 peptides on the surface of indicated AML cell lines with endogenous HLA-B7 expression using the heavy labelled Leu7 counterpart for detection. Logarithmic intensities of MPO peptide surface presentation for MPO peptides are shown in duplicates. MPO5 peptides are depicted in blue, MPO2 peptides are depicted in green (n=2).
(§2) For differential scanning fluorimetry (DSF), i.e. thermal shift assay and kinetic stability measurement, MPO2-, MPO2+L1-, MPO5- or pp65(417-426) peptide exchanged HLA-B7 monomers were used in a concentration of 2µM and analyzed on a StepOnePlus RT-PCR instrument (Applied Biosystems, Foster City, CA, USA), respectively. Samples were measured in a final volume of 20µl in MicroAmp^R Fast Optical 96-well reaction plates (Applied Biosystems) containing 150mM NaCl, 10mM HEPES (pH 7.4), 3mM EDTA and 10x SYPRO orange (Thermo Fisher Scientific) as described previously (Hellman et al., 2016). Analysis was done following the recommendations described elsewhere (Niesen et al., 2007) using the Microsoft Excel-based tool “DSF Analysis v3.0.2” available under the following link (ftp://ftp.sgc.ox.ac.uk/pub/biophysics). For accurate ﬁtting and calculation of V50-values, the Boltzmann equation was performed using GraphPad Prism (version 7.04, San Diego, USA). The kinetic stability was analyzed at constant 37°C and fluorescence was measured every 5 minutes. The fluorescent data were fit to a two-phase decay function and slowest rates for half-lives were calculated using GraphPad Prism (version 7.04, San Diego, USA).

[2] = test system: HLA-B7 monomers; test: Kinetic stability of p-MHC complexes at 37°C (DSF); assay type: binding, human; conditions: DSF at constant 37°C; for Half-life 37°C: pH 7.4, SYPRO orange, two-phase decay, slowest rate, mean of quadruplicates (n=2)
Protocol: as §1, §2

[3] = test system: HL60, ML2, NB4 and SiG-M5 AML cell lines; test: Cytokine secretion by TCR-transduced CD8+ T cells to AML cell lines; assay type: cell-based, human; conditions: AML cell lines pulsed with MPO2 or MPO5
Protocol: The cytotoxic reactivity of T cells was tested by flow cytometry making use of changes in signal of the HLA-B7eGFP-transgenic target cells during co-cultivation for different time periods and effector to target ratios. For relative quantification of cytotoxicity, AccuCheck counting beads were used according to the manufacturer's protocol (Thermo Fisher Scientific) and the results were normalized to either non-TCR-transduced T cells or irrelevant T-cell clones. The supernatants of the co-cultivation were used to measure IFN-γ by ELISA (BD) or GM-CSF, IFN-γ, and lL-2 multiplexed by flow cytometry (Miltenyi Biotec) according to the manufacturer's instructions. […] If not stated otherwise, the effector to target ratio was set to 1:1 for the co-incubation assays using 20,000 cells in each fraction.
Half-maximal IFN-γ release was calculated using logarithmic dose-response fitting algorithm with variable slope (EC50) of GraphPad Prism. Mean ± SD of triplicates of one representative experiment are shown (n = 6). […] 10.000 effector cells were used in a ratio of 1:1. Standard deviations of the mean of triplicates are shown (n = 4). (Gi−iv) Cytokine secretion (GM-CSF, IFN-γ, and IL-2) measured by flow cytometry based multiplex analysis in response to selected AML cell lines is shown in triplicates either unpulsed or additionally pulsed with MPO2 or MPO5.

[4] = test system: AML cell lines; test: Targeted MS of surface-presented peptides; parameters: species or system human; conditions: targeted MS with heavy labelled peptides; MPO2 compared to MPO5 (n=2)
Protocol: as §1, with “MPO5 peptides are depicted in blue, MPO2 peptides are depicted in green (n=2).” left out
The MPO2 and MPO5 ligands were identified using an immunopeptidomic approach as previously described (Klar et al., 2014). For the targeted identification and relative quantification of both peptides, HLA-I peptides were purified from 5x10^8 cells of each cell line as previously described (Bassani-Sternberg et al., 2016). […]

[5] = test system: HLA-B7 monomers; test: UV-mediated peptide exchange, B2M ELISA; assay type: binding, human; conditions: for Stability after UV-peptide exchange, V50: Pooled values of at least three independent experiments, 0–200 μM peptide, UV 366 nm, B2M ELISA, Boltzmann fit; for HLA-stabilization potential: UV-peptide exchange, titrated peptide
Protocol: Biotinylated HLA-B7 monomers loaded with the UV-cleavable epitope AARG(J)TLAM were created as previously described ([33]). Peptide-HLA stability was measured using the protocol on the basis of Rodenko et al. ([34]). In brief, HLA-B7 monomers loaded with the UV-sensitive peptide were exposed to UV light (366 nm) in the presence of graded amounts (0–200 μM) of MPO peptides. Afterward 1:10 dilutions of the UV-exchanged monomers were adhered via streptavidin to the bottom of a 96-well plate (F96 maxisorp nunc-immune plate, Thermo scientific) and a beta-2-microglobulin ELISA was performed. The OD measurements were performed on a Tecan Sunrise multi-well-reader using Magellan software (version 7.2).
(§3) An E/T ratio of 1:1 was used. IFN-γ secretion of the supernatants after co-cultivation was measured by IFN-γ ELISA. […] (B) Beta-2-microglobulin (B2M)-ELISA of UV-mediated peptide exchanged HLA-B7 monomers. V50 values of a Boltzmann fitting for each MPO-peptide was determined by the optical density of B2M after degraded amounts of MPO-peptides were used for HLA-stabilization. […] (C) Pooled results of (B) for MPO5 (n = 4), MPO2 (n = 4), and MPO2+L1 (n = 3). Significance is calculated by Mann-Whitney Test: *p = 0.0286. TEXT PRINTED IN THE PICTURE: (B) MPO5: V50 = -5,204 | (B) MPO2: V50 = -4,610 | (B) MPO2+L1: V50 = -4,143
To verify the stability results of all three MPO-peptides experimentally, we performed HLA-B7 UV-peptide exchange assays with titrated amounts of peptide added to a constant concentration of HLA-B7 monomers bound to a UV-sensitive peptide. […] Thus, our results oppose the results of the NetMHC stability prediction. As a second experiment, we performed thermal shift assays for the MPO peptides to characterize their potential to prevent denaturation of the HLA-complex with ascending temperature (Supplementary Figure 3A; Table 1).

[6] = test system: HLA-B7+ LCL1 cell line; test: IFN-γ release by TCRF5.4-transduced PBMC to peptide-pulsed LCL1; assay type: cell-based, human; conditions: peptide-pulsed LCL1, E/T 1:1, ELISA, triplicates (n = 2)
Protocol: as §3

Sequence | Thermal stability V50 [1] [°C] | thermal V50 [1] [°C] | Half-life 37°C [2] [h] | effect of additional peptide pulsing on cytokine secretion [3] | surface presentation on AML cell lines [4] | Half-life (decay of HLA-complexes) 37°C [2] [h] | Stability after UV-peptide exchange, V50 [5] [log10 M] | IFN-γ secretion by TCRF5.4-transduced T cells [6] | HLA-stabilization potential [5]
TPRVTGGGAM [pp65, pp65(417-426) control peptide […], reference compound] | 50.0 | 50 | 5.6 |  |  |  |  |  | 
TPAQLNVL [MPO2] | 46.3 | 46 | 3.5 | these differences could be compensated by additional MPO2 peptide pulsing | markedly lower presented on the surface of all AML cells lines compared to MPO5 | 3.5 | −4.671 |  | 
LTPAQLNVL [MPO2+L1] | 44.0 | 44 | 2.9 |  |  |  | −3.728 | detected IFN-γ secretion | lowest potential for HLA-stabilization
NPRWDGERL [MPO5] | 46.4 | 46 | 4.1 | did not have a major impact on cytokine secretion |  | 4.1 | −5.535 |  | almost one log increased potential to rescue the HLA-B7 molecule
